Experimental data from patent US20140142352A1, “BUTANOL PURIFICATION” (BUTAMAX ADVANCED BIOFUELS LLC, priority 2012, published 2014).
Like-named read-outs stand apart in the source and are kept apart here.

What was measured:
isobutanologen PNY 2242 = assay: SSF corn mash fermentation of isobutanologen with extractant layer; type: cell-based
Experimental: An isobutanologen was cultivated in 20 ml of corn mash in 125 ml shake flasks with a simultaneous saccharification and fermentation (SSF) process. […] The culture was incubated at 30° C. and 250 rpm for 24 hours in an Innova Laboratory Shaker (New Brunswick Scientific, Edison, N.J.). […] Resulting stage 2 cultures with total culture volume of 103 ml were incubated again at 250 rpm for 24 hours. […] Cultures were spun down at 9500 rpm for 20 minutes and supernatants were discarded. Cell pellet was re-suspended into 20 ml of production medium in the tubes.
The 20 ml cell cultures in the tubes were transferred into the shake flasks pre-filled with solvent. 50 μl of distillase added, and the shake flasks were closed with a close lid (for low oxygen/anaerobic cultivation). The flasks were subsequently incubated at 30° C. and 250 rpm for 48 hours. Each flask was sampled twice a day to measure glucose via YSI. After 48 hours, 2 ml aqueous and 1 ml of solvent phase were saved for exo-metabolite, starch and extractant analysis.
Extracellular compound analysis in supernatant was accomplished by HPLC. […] Flow rate was 0.60 ml/min, column temperature 40° C., injection volume 10 ul and run time 58 min.
For starch analysis, culture samples were centrifuged for 5 minutes at 14,000 rpm and solvent atop the aqueous layer was removed. Remaining aqueous fraction was re-suspended, thoroughly mixed and 0.30 g of the mixture transferred into previously weighted vials. […] Finally the samples were incubated for 5 minutes at 99° C. and 1100 rpm, transferred to previously weighted 10 mL volumetric flasks, filled at level with water, weights were recorded, 400 μl of the solution filtered through a centrifugal filter and subjected to HPLC analysis.
The cultures contained a second layer with either oleyl alcohol (OA) or an OA phase containing different portions of either trioctylamine (TOA) or aliquate for liquid-liquid extraction (LLX).

[1] = Reactive liquid-liquid extraction from aqueous compound solution into OA or OA with TBP, TOA or A336: aqueous concentrations; type: physicochemical; conditions: pH=5.3, 30° C.
Experimental: The emulsions were rigorously vortexed and incubated at 30° C. and 300 rpm for 30 minutes. The emulsions were rigorously vortexed again, 1 mL sample was withdrawn and centrifuged in an Eppendorf table top centrifuge for 5 minutes at 16,000 rpm. Samples were taken from the top (extractant) as well as bottom (aqueous broth) phase and stored in the freezer at −20° C. for further analysis. […] The flow rate was 0.08 ml/min, column temperature was 60° C., the injection volume was 10 ul and the sample run time was 38 minutes.

[2] = 30 min, pH 5.3
Experimental: The emulsions were rigorously vortexed and incubated at 30° C. and 300 rpm for 30 minutes. The emulsions were rigorously vortexed again, 1 mL sample was withdrawn and centrifuged in an Eppendorf table top centrifuge for 5 minutes at 16,000 rpm. Samples were taken from the top (extractant) as well as bottom (aqueous broth) phase and stored in the freezer at −20° C. for further analysis.
Aqueous broth samples were filtered through a 0.20 μm filter (Nanosept MF, Pall) and analyzed by HPLC. […] The flow rate was 0.08 ml/min, column temperature was 60° C., the injection volume was 10 ul and the sample run time was 38 minutes.
In subsequent calculations, the volume of water was corrected for the extracted volume, but no volume increase of the diluent was considered.
Partitioning of the deprotonated form of the acid was neglected, and only the protonated form was assumed to transition into the diluent oleyl alcohol.

[3] = Liquid-liquid extraction of carboxylic acids from fermentation medium into oleyl alcohol at different pH; type: physicochemical
Experimental: (§1) The samples were subsequently incubated in a shaker at 30° C. and 300 rpm for 30 minutes. […] Finally, the aqueous broth samples were withdrawn from the upper section of the bottom phase for further analysis. […] The flow rate was 0.60 ml/min, the column temperature 40° C., the injection volume 10 ul and the run time was 58 minutes.

[4] = Liquid-liquid extraction of isobutyric acid from fermentation medium into oleic acid at different pH; type: physicochemical
Experimental: as §1

[5] = Liquid-liquid extraction of isobutyric acid from fermentation medium into SOFA at different pH; type: physicochemical
Experimental: as §1

[6] = Liquid-liquid extraction of isobutyric acid from fermentation medium into COFA at different pH; type: physicochemical
Experimental: as §1

anaerobic inoculum = assay: Acetate Toxicity Assays (ATA); type: cell-based
Experimental: For the BMP tests, iBA provided the sole source of substrate over a range of conditions. Feed controls were prepared at organic loadings that spanned the lower and upper range of loadings used in the ATA and BMP tests, and gas production was monitored. Samples were prepared in triplicate with the seed concentration for all test bottles being 2000 mg/L. The feed control and ATA biodegradable synthetic feed composition contained 4000 mg/L acetate and 2000 mg/L propionate. The inorganic nutrient media used was similar to media presented in Table 5.1 of […], Anaerobic Biotechnology for Industrial […], Vanderbilt University, […], Nashville, p 115 (1996). The bottles were maintained at a temperature of 35° C.

[7] = 2 mL extractant on 2 mL aqueous solution
[8] = 6 mL extractant on 2 mL aqueous solution
[9] = 10 mL extractant on 2 mL aqueous solution
[10] = pH 3.14, ISPR ratio (Aq):(Oleyl Alcohol) 1:1
[11] = pH 3.14, ISPR ratio (Aq):(Oleyl Alcohol) 1:3
[12] = pH 4.94, ISPR ratio (Aq):(Oleyl Alcohol) 1:1
[13] = pH 4.94, ISPR ratio (Aq):(Oleyl Alcohol) 1:3
[14] = pH 7.24, ISPR ratio (Aq):(Oleyl Alcohol) 1:1
[15] = pH 7.24, ISPR ratio (Aq):(Oleyl Alcohol) 1:3

In the case of `CCCCCCCC/C=C\CCCCCCCCO` [OA, oleyl alcohol], the “performance of the butanologen (glucose consumption, isobutanol production, FIG. 4)” value (isobutanologen PNY 2242; 48 hours, extractant as LLX layer) is reported as “performed best”, the “C (g/c) [g/L], free glucose during the SSF” value (isobutanologen PNY 2242; EPT 3.67 h) is reported as 37.2 g/L and the “C (g/c) [g/L], free glucose during the SSF” value (isobutanologen PNY 2242; EPT 21.00 h) is reported as 34.60 g/L. For the same compound, the “C (g/c) [g/L], free glucose during the SSF” value (isobutanologen PNY 2242; EPT 28.00 h) was 29.7 g/L, the “C (g/c) [g/L], free glucose during the SSF” value (isobutanologen PNY 2242; EPT 48.00 h) was 1.20 g/L and the “Acetic Acid (mM), aqueous concentration after addition of extractant” value (from here on “Acetic Acid (mM), aqueous concentration”) [1, 7] was 13.13 mM. For the same compound, the “Formic Acid (mM), aqueous concentration after addition of extractant” value (from here on “Formic Acid (mM), aqueous concentration”) [1, 7] was 11.96 mM, the “Isobutanol (mM), aqueous concentration after addition of extractant” value (from here on “Isobutanol (mM), aqueous concentration”) [1, 7] was 3.01 mM and the “Isobutyric Acid (mM), aqueous concentration after addition of extractant” value (“Isobutyric Acid (mM)” for short) [1, 7] was 8.01 mM. The “MES (AU), aqueous concentration after addition of extractant” value (“MES (AU), aqueous concentration” for short) [1, 7] was 6954908 AU, the “Phosphate (AU), aqueous concentration after addition of extractant” value (from here on “Phosphate (AU), aqueous concentration”) [1, 7] was 656297 AU and the “Acetic Acid (mM), aqueous concentration” value [1, 8] was 12.98 mM. The “Formic Acid (mM), aqueous concentration” value [1, 8] was 12.68 mM, the “Isobutanol (mM), aqueous concentration” value [1, 8] was 1.19 mM and the “Isobutyric Acid (mM)” value [1, 8] was 4.95 mM. The “MES (AU), aqueous concentration” value [1, 8] was 7135183 AU, the “Phosphate (AU), aqueous concentration” value [1, 8] was 673645 AU and the “Acetic Acid (mM), aqueous concentration” value [1, 9] was 12.73 mM. The “Formic Acid (mM), aqueous concentration” value [1, 9] was 13.05 mM, the “Isobutanol (mM), aqueous concentration” value [1, 9] was 0.77 mM and the “Isobutyric Acid (mM)” value [1, 9] was 3.57 mM. For the same compound, the “MES (AU), aqueous concentration” value [1, 9] was 7168671 AU and the “Phosphate (AU), aqueous concentration” value [1, 9] was 676874 AU.
In the case of `CC(C)CO` [Isobutanol, 2-methyl-1-propanol], the “Partition coefficients (P) [HA] org/aq” value [2] is reported as 2.97 mol/mol.
For `CCCCCCCCN(CCCCCCCC)CCCCCCCC` [TOA, tru-n-octylamine], the “efficiency of extraction of isobutyric acid” value (100 mM extractant in oleyl alcohol) was “less efficient”.
For `CC(=O)O` [Acetic Acid, acetic acid], the “Conc. of acid in aqueous broth after extraction” value (“Conc. of acid in aqueous broth” below) [3, 10] was 140040 µM, the “Conc. of acid in aqueous broth” value [3, 11] was 106430 µM and the “Conc. of acid in aqueous broth” value [3, 12] was 162730 µM. For the same compound, the “Conc. of acid in aqueous broth” value [3, 13] was 159230 µM, the “Conc. of acid in aqueous broth” value [3, 14] was 169150 µM and the “Conc. of acid in aqueous broth” value [3, 15] was 173630 µM.
For `CC(C)C(=O)O` [Isobutyric Acid, isobutyric acid], the “Conc. Isobutyric Acid (%)” value ([4]; pH 4.08, ISPR ratio (Aq):(Oleic Acid) 1:1) was 29.60%, the “Conc. Isobutyric Acid (%)” value ([4]; pH 4.08, ISPR ratio (Aq):(Oleic Acid) 1:3) was 13.00% and the “Conc. Isobutyric Acid (%)” value ([4]; pH 4.82, ISPR ratio (Aq):(Oleic Acid) 1:1) was 49.16%. The “Conc. Isobutyric Acid (%)” value ([4]; pH 4.82, ISPR ratio (Aq):(Oleic Acid) 1:3) was 23.36%, the “Conc. Isobutyric Acid (%)” value ([4]; pH 6.95, ISPR ratio (Aq):(Oleic Acid) 1:1) was 67.35% and the “Conc. Isobutyric Acid (%)” value ([4]; pH 6.95, ISPR ratio (Aq):(Oleic Acid) 1:3) was 28.60%. For the same compound, the “Partition coefficients (P) [HA] org/aq” value [2] was 1.91 mol/mol, the KE (+A336, oleyl alcohol with 100 mM of Aliquat 336) was 0.036 and the KE (+TBA, oleyl alcohol with 100 mM of tributyl phosphate) was 0.000. For the same compound, the KE (+TOA, oleyl alcohol with 100 mM of trioctyl amine) was 0.010, the “Conc. Isobutyric Acid (%)” value ([5]; pH 3.93, ISPR ratio (Aq):(SOFA) 1:1) was 31.37% and the “Conc. Isobutyric Acid (%)” value ([5]; pH 3.93, ISPR ratio (Aq):(SOFA) 1:3) was 12.68%. The “Conc. Isobutyric Acid (%)” value ([5]; pH 4.92, ISPR ratio (Aq):(SOFA) 1:1) was 53.76%, the “Conc. Isobutyric Acid (%)” value ([5]; pH 4.92, ISPR ratio (Aq):(SOFA) 1:3) was 27.63% and the “Conc. Isobutyric Acid (%)” value ([5]; pH 6.64, ISPR ratio (Aq):(SOFA) 1:1) was 74.48%. The “Conc. Isobutyric Acid (%)” value ([5]; pH 6.64, ISPR ratio (Aq):(SOFA) 1:3) was 33.23%, the “Conc. Isobutyric Acid (%)” value ([6]; pH 4.08, ISPR ratio (Aq):(COFA) 1:1) was 29.81% and the “Conc. Isobutyric Acid (%)” value ([6]; pH 4.08, ISPR ratio (Aq):(COFA) 1:3) was 12.81%. The “Conc. Isobutyric Acid (%)” value ([6]; pH 4.82, ISPR ratio (Aq):(COFA) 1:1) was 52.89%, the “Conc. Isobutyric Acid (%)” value ([6]; pH 4.82, ISPR ratio (Aq):(COFA) 1:3) was 30.00% and the “Conc. Isobutyric Acid (%)” value ([6]; pH 6.95, ISPR ratio (Aq):(COFA) 1:1) was 70.40%. The “Conc. Isobutyric Acid (%)” value ([6]; pH 6.95, ISPR ratio (Aq):(COFA) 1:3) was 31.27%, the “Cumulative Gas Production (% Theoretical Max)” value (anaerobic inoculum; ATA-syn 550 ppm iBA, Day 2) was 18 % Theoretical Max and the “Cumulative Gas Production (% Theoretical Max)” value (anaerobic inoculum; ATA-syn 550 ppm iBA, Day 4) was 45 % Theoretical Max. The “Cumulative Gas Production (% Theoretical Max)” value (anaerobic inoculum; ATA-syn 550 ppm iBA, Day 6) was 65 % Theoretical Max, the “Cumulative Gas Production (% Theoretical Max)” value (anaerobic inoculum; ATA-syn 550 ppm iBA, Day 10) was 82 % Theoretical Max and the “Cumulative Gas Production (% Theoretical Max)” value (anaerobic inoculum; ATA-syn 550 ppm iBA, Day 12) was 85 % Theoretical Max. For the same compound, the “Cumulative Gas Production (% Theoretical Max)” value (anaerobic inoculum; ATA-syn 550 ppm iBA, Day 15) was 86 % Theoretical Max, the “Cumulative Gas Production (% Theoretical Max)” value (anaerobic inoculum; ATA-syn 825 ppm iBA, Day 2) was 14 % Theoretical Max and the “Cumulative Gas Production (% Theoretical Max)” value (anaerobic inoculum; ATA-syn 825 ppm iBA, Day 4) was 36 % Theoretical Max. The “Cumulative Gas Production (% Theoretical Max)” value (anaerobic inoculum; ATA-syn 825 ppm iBA, Day 6) was 56 % Theoretical Max, the “Cumulative Gas Production (% Theoretical Max)” value (anaerobic inoculum; ATA-syn 825 ppm iBA, Day 10) was 82 % Theoretical Max and the “Cumulative Gas Production (% Theoretical Max)” value (anaerobic inoculum; ATA-syn 825 ppm iBA, Day 12) was 83 % Theoretical Max. For the same compound, the “Cumulative Gas Production (% Theoretical Max)” value (anaerobic inoculum; ATA-syn 825 ppm iBA, Day 15) was 84 % Theoretical Max, the “Cumulative Gas Production (% Theoretical Max)” value (anaerobic inoculum; ATA-syn 1100 ppm iBA, Day 2) was 14 % Theoretical Max and the “Cumulative Gas Production (% Theoretical Max)” value (anaerobic inoculum; ATA-syn 1100 ppm iBA, Day 4) was 36 % Theoretical Max. For the same compound, the “Cumulative Gas Production (% Theoretical Max)” value (anaerobic inoculum; ATA-syn 1100 ppm iBA, Day 6) was 51 % Theoretical Max, the “Cumulative Gas Production (% Theoretical Max)” value (anaerobic inoculum; ATA-syn 1100 ppm iBA, Day 10) was 82 % Theoretical Max and the “Cumulative Gas Production (% Theoretical Max)” value (anaerobic inoculum; ATA-syn 1100 ppm iBA, Day 12) was 85 % Theoretical Max. For the same compound, the “Cumulative Gas Production (% Theoretical Max)” value (anaerobic inoculum; ATA-syn 1100 ppm iBA, Day 15) was 85 % Theoretical Max, the “inhibition of gas generation” value (anaerobic inoculum; iBA concentrations of up to 1100 parts per million (ppm)) was “did not inhibit gas generation” and the “Conc. of acid in aqueous broth” value [3, 10] was 19770 µM. The “Conc. of acid in aqueous broth” value [3, 11] was 8100 µM, the “Conc. of acid in aqueous broth” value [3, 12] was 46140 µM and the “Conc. of acid in aqueous broth” value [3, 13] was 30830 µM. The “Conc. of acid in aqueous broth” value [3, 14] was 93360 µM and the “Conc. of acid in aqueous broth” value [3, 15] was 91950 µM.
In the case of `CC(C)(O)CC(=O)O` [HMB], the “Conc. of acid in aqueous broth” value [3, 10] is reported as 54070 µM, the “Conc. of acid in aqueous broth” value [3, 11] is reported as 40280 µM and the “Conc. of acid in aqueous broth” value [3, 12] is reported as 72000 µM. The “Conc. of acid in aqueous broth” value [3, 13] was 71860 µM, the “Conc. of acid in aqueous broth” value [3, 14] was 72460 µM and the “Conc. of acid in aqueous broth” value [3, 15] was 73310 µM.
